We go through 19 compounds from US7879876B2, “Sulfonamide derivatives and use thereof for the modulation of metalloproteinases” (Merck Serono SA, priority 2005, dated 2011).

One test addresses MMP13 (Homo sapiens, UniProt P45452). The test is described as follows: MMP13 inhibition (Table 1). It is filed as biochemical. The note with it: read-out: percentage inhibition MMP13.
The test system of test [1] is IL-2-induced peritoneal recruitment of lymphocytes. The experiment in a line: IL-2-induced peritoneal recruitment of lymphocytes. It is filed as in vivo, C3H/HEN mice. The note with it: Mus musculus, Lymphocyte, po; 3 mg/kg p.o., 15 min prior to IL-2; mice; 24 h after IL-2. The method, then:
Administration of IL-2 intraperitoneally causes migration of lymphocytes into the intraperitoneal cavity. This is a model for the cellular migration that occurs during inflammation.
C3H/HEN mice (Elevage Janvier, France) were intraperitoneally injected with IL-2 (Serono Pharmaceutical Research Institute, 20 μg/kg, in saline). Compounds of the invention were suspended in 0.5% carboxymethylcellulose (CMC)/0.25% tween-20 and were administered by s.c. or p.o. route (10 ml/kg) 15 min prior to administration of IL-2.
Twenty-four hours after administration of IL-2, peritoneal white blood cells were collected by 3 successive lavages of the peritoneal cavity with 5 ml phosphate buffered saline (PBS)-1 mM EDTA (+4° C.). The suspension was centrifuged (1700 g×10 min at +4° C.). The resulting pellet was suspended in 1 ml PBS-1 mM EDTA.
Lymphocytes were identified and counted using a Beckman/Coulter counter.
The animals were divided into 6 groups (6 mice each group):
Group 1: (baseline) received 0.5% CMC/0.25% tween-20 (vehicle of compound of the invention) and saline (vehicle of IL-2);
Group 2: (control IL-2) received 0.5% CMC/0.25% tween-20 and injection of IL-2;
Group 3: Experimental group (Compound of the invention Dose 1) received a compound of the invention and injection of IL-2;
Group 4: Experimental group (Compound of the invention Dose 2) received a compound of the invention and injection of IL-2;
Group 5: Experimental group (Compound of the invention Dose 3) received a compound of the invention and injection of IL-2;
Group 6: Reference group received reference compound dexamethasone and injection of IL-2.
Inhibition of lymphocyte recruitment was calculated as follows:
Where Ly 1=Number of lymphocytes in group 1 (E3/μl), Ly 2=Number of lymphocytes in group 2 (E3/μl), Ly X=Number of lymphocytes in group X (3-5) (E3/μl).

The term inhibition denotes the relative decrease from the control value, in per cent. With `O=CN(O)C(CCc1ccccc1)CS(=O)(=O)N1CCc2ccccc2C1` (centres unmarked) [Example 1, N-{1-[(3,4-dihydroisoquinolin-2(1H)-ylsulfonyl)methyl]-3-phenylpropyl}-N-hydroxyformamide], at MMP13, the inhibition at 0.1 µM is 15% and the inhibition at 5 µM is 97%.
In general, inhibition in vivo refers to the drop in the measured response relative to a control, in per cent. The low end stands for little suppression, the high end for strong suppression. `CC1(C)OC[C@H](C(CS(=O)(=O)N2CCc3ccccc3C2)N(O)C=O)O1` (stereo partly drawn) [Example 2, N-{2-(3,4-dihydroisoquinolin-2(1H)-ylsulfonyl)-1-[(4S)-2,2-dimethyl-1,3-dioxolan-4-yl]ethyl}-N-hydroxyformamide] had an inhibition in vivo at 3 mg/kg in test [1] of 16 ± 13%. At MMP13, the inhibition at 0.1 µM worked out at 17% and the inhibition at 5 µM is 98%.
For the compound `CCCCCC(CS(=O)(=O)N1CCc2ccccc2C1)N(O)C=O` (centres unmarked) [Example 3, N-{1-[(3,4-dihydroisoquinolin-2(1H)-ylsulfonyl)methyl]hexyl}-N-hydroxyformamide], at MMP13, the inhibition at 0.1 µM amounted to 6% and the inhibition at 5 µM was determined as 98%.
Take `O=CN(O)C(CS(=O)(=O)N1CCc2ccccc2C1)C1CC1` (centres unmarked) [Example 4, N-[1-cyclopropyl-2-(3,4-dihydroisoquinolin-2(1H)-ylsulfonyl)ethyl]-N-hydroxyformamide]: at MMP13, the inhibition at 0.1 µM came out at 0% and the inhibition at 5 µM was found to be 80%.
`O=CN(O)C(CCc1ccccc1)CS(=O)(=O)N1Cc2ccccc2C1` (centres unmarked) [Example 6, N-{1-[(1,3-dihydro-2H-isoindol-2-ylsulfonyl)methyl]-3-phenylpropyl}-N-hydroxyformamide] returned an inhibition in vivo at 3 mg/kg in test [1] of 40 ± 6%. For the same compound, on MMP13, the inhibition at 0.1 µM was determined as 11% and the inhibition at 5 µM came out at 94%.
On to `O=CN(O)C(CS(=O)(=O)N1CCc2ccccc2C1)c1cccnc1` (centres unmarked) [Example 10, N-[2-(3,4-dihydroisoquinolin-2(1H)-ylsulfonyl)-1-pyridin-3-ylethyl]-N-hydroxyformamide], for which the inhibition at 5 µM at MMP13 amounted to 93%.
Same read-out and setting: the figure for `COc1cc2c(cc1OC)CN(S(=O)(=O)CC(CCc1ccccc1)N(O)C=O)CC2` (centres unmarked) [Example 12, N-(1-{[(6,7-dimethoxy-3,4-dihydroisoquinolin-2(1H)-yl)sulfonyl]methyl}-3-phenylpropyl)-N-hydroxyformamide] is 48%.
In the case of `COc1ccc(C(CS(=O)(=O)N2CCc3ccccc3C2)N(O)C=O)cn1` (centres unmarked) [Example 13, N-[2-(3,4-dihydroisoquinolin-2(1H)-ylsulfonyl)-1-(6-methoxypyridin-3-yl)ethyl]-N-hydroxyformamide], on MMP13, the inhibition at 0.1 µM stood at 28% and the inhibition at 5 µM worked out at 96%.
For the compound `COc1cc2c(cc1OC)CN(S(=O)(=O)CC([C@H]1COC(C)(C)O1)N(O)C=O)CC2` (stereo partly drawn) [Example 14, N-{2-[(6,7-dimethoxy-3,4-dihydroisoquinolin-2(1H)-yl)sulfonyl]-1-[(4S)-2,2-dimethyl-1,3-dioxolan-4-yl]ethyl}-N-hydroxyformamide], the inhibition in vivo at 3 mg/kg in test [1] was 50 ± 10%. Also, at MMP13, the inhibition at 0.1 µM is 5% and the inhibition at 5 µM came to 68%.
`CC(C)C(CS(=O)(=O)N1CCc2ccc(-c3ccc(F)cc3)cc2C1)N(O)C=O` (centres unmarked) [Example 50, N-[1-({[7-(4-fluorophenyl)-3,4-dihydroisoquinolin-2(1H)-yl]sulfonyl}methyl)-2-methylpropyl]-N-hydroxyformamide] yielded an inhibition in vivo at 3 mg/kg in test [1] of 32 ± 4%.
Regarding `CC(C)(CS(=O)(=O)N1CCc2ccc(Br)cc2C1)N(O)C=O` [Example 56, N-{2-[(7-bromo-3,4-dihydroisoquinolin-2(1H)-yl)sulfonyl]-1,1-dimethylethyl}-N-hydroxyformamide], 3 mg/kg produced 37 ± 8% inhibition in vivo in test [1].
Compound `O=CN(O)C(COCc1ccccc1)CS(=O)(=O)N1CCc2ccc(C(F)(F)F)cc2C1` (centres unmarked) [Example 59, N-[2-(benzyloxy)-1-({[7-(trifluoromethyl)-3,4-dihydro-isoquinolin-2(1H)-yl]sulfonyl}methyl)ethyl]-N-hydroxyformamide] returned an inhibition in vivo at 3 mg/kg in test [1] of 55 ± 9%.
In test [1], `O=CN(O)C(COc1ccccc1)CS(=O)(=O)N1CCc2ccc(Cl)cc2C1` (centres unmarked) [Example 61, N-[2-[(7-chloro-3,4-dihydroisoquinolin-2(1H)-yl)sulfonyl]-1-(phenoxymethyl)ethyl]-N-hydroxyformamide] registered an inhibition in vivo at 3 mg/kg of 45 ± 9%.
With `O=CN(O)C1(CS(=O)(=O)N2CCc3ccc(Cl)cc3C2)CCCC1` [Example 62, N-(1-{[(7-chloro-3,4-dihydroisoquinolin-2(1H)-yl)-sulfonyl]methyl}cyclopentyl)-N-hydroxyformamide], in test [1], 3 mg/kg produced 20 ± 9% inhibition in vivo.
The same measure, in the same setting: next, `O=CN(O)C(CS(=O)(=O)N1CCc2ccc(-c3ccsc3)cc2C1)C1CCCC1` (centres unmarked) [Example 68, N-(1-cyclopentyl-2-{[7-(3-thienyl)-3,4-dihydroisoquinolin-2(1H)-yl]sulfonyl}ethyl)-N-hydroxyformamide]: 33 ± 7%; `O=CN(O)C(CS(=O)(=O)N1Cc2ccccc2C1)C1CC1` (centres unmarked) [Example 72, N-[1-cyclopropyl-2-(1,3-dihydro-2H-isoindol-2-ylsulfonyl)-ethyl]-N-hydroxyformamide]: 41 ± 7%; `O=CN(O)C(CS(=O)(=O)N1CCc2ccc(-c3ccc(F)cc3)cc2C1)C1CC1` (centres unmarked) [Example 75, N-(1-cyclopropyl-2-{[7-(4-fluorophenyl)-3,4-dihydro-isoquinolin-2(1H)-yl]sulfonyl}ethyl)-N-hydroxyformamide]: 26 ± 11%.
`O=CN(O)C(CCC(F)(F)F)CS(=O)(=O)N1CCc2ccc(Cl)cc2C1` (centres unmarked) [Example 76, N-(1-{[(7-chloro-3,4-dihydroisoquinolin-2(1H)-yl)-sulfonyl]methyl}-4,4,4-trifluorobutyl)-N-hydroxyformamide] gave an inhibition in vivo at 3 mg/kg in test [1] of 45 ± 11%.
In the case of `O=CN(O)C(CS(=O)(=O)N1CCc2ccc(-c3ccncc3)cc2C1)C1CCCC1` (centres unmarked) [Example 79, N-{1-cyclopentyl-2-[(7-pyridin-4-yl-3,4-dihydroisoquinolin-2(1H)-yl)sulfonyl]ethyl}-N-hydroxyformamide], the inhibition in vivo at 3 mg/kg in test [1] turned out to be 43 ± 10%.
